# According to PubChem BioAssay (NCI):
#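 Assay format: 96-well plates, 48-hour exposure. GI50 is the concentration that inhibits growth by half. TGI: concentration producing complete growth inhibition.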
# What was measured:
# Assay in all cases: growth of human tumour cells (NCI), 48 h
# [1] = tested on: XF 498 CNS
# [2] = tested on: DLD-1 colon
# [3] = tested on: M19-MEL melanoma
# [4] = tested on: DMS 114 small cell lung
# [5] = tested on: HOP-62 NSCLC
# [6] = tested on: LXFL 529 NSCLC
# [7] = tested on: BT-549 breast
# [8] = tested on: MDA-MB-231 breast
# [9] = tested on: KM20L2 colon
# [10] = tested on: DU-145 prostate
# [11] = tested on: T-47D breast
# [12] = tested on: MDA-MB-435
# [13] = tested on: DMS 273 small cell lung
# [14] = tested on: SNB-78 CNS
SMILES,TGI [1],TGI [2],TGI [3],TGI [4],TGI [5],TGI [6],TGI [7],TGI [8],TGI [9],TGI [10],TGI [11],TGI [12],TGI [13],TGI [14],GI50 [7],GI50 [8],GI50 [10],GI50 [11],GI50 [12],GI50 [5]
CCOC(=O)C(=O)Nc1ccccc1CC,> 100 µM,> 100 µM,> 100 µM,> 100 µM,> 100 µM,> 100 µM,–,–,–,–,–,–,–,–,–,–,–,–,–,–
COc1ccc(C2=C(Cl)c3cc(OC)c(OC)cc3C2Cl)cc1 (stereo unspecified),–,–,35.8 µM,31.8 µM,32.2 µM,28.4 µM,15.6 µM,36.6 µM,30.5 µM,45.4 µM,35.1 µM,28.5 µM,39.5 µM,49.3 µM,–,–,–,–,–,–
Cn1cc(C2(C)CC(C)(C)c3c2n(C)c2ccccc32)c2ccccc21 (stereo unspecified),> 100 µM,> 100 µM,> 100 µM,> 100 µM,> 100 µM,> 100 µM,–,–,> 100 µM,–,–,–,> 100 µM,> 100 µM,–,–,–,–,–,–
Clc1cc(Cl)c2ns[s+]c2c1Cl,> 100 µM,> 100 µM,> 100 µM,–,> 100 µM,> 100 µM,–,–,> 100 µM,–,–,–,> 100 µM,14.8 µM,–,–,–,–,–,–
O=C(N/N=C/c1cc(Br)ccc1O)N/N=C/c1cc(Br)ccc1O,> 100 µM,> 100 µM,> 100 µM,> 100 µM,> 100 µM,–,–,–,> 100 µM,–,–,–,> 100 µM,–,–,–,–,–,–,–
CC1=CC(C)(C)N=C2SC(c3ccc(N)cc3)=NN12,> 100 µM,> 68.9 µM,> 100 µM,> 100 µM,> 100 µM,> 77.6 µM,–,–,> 100 µM,–,–,–,> 61.2 µM,> 100 µM,–,–,–,–,–,–
CCOC(=O)/C(C)=C(/O)C(=O)OCC,> 100 µM,> 100 µM,–,> 100 µM,> 100 µM,> 100 µM,–,–,–,–,–,–,> 100 µM,> 100 µM,–,–,–,–,–,–
CC(=O)C1Cn2c(nc3ccccc32)C[Se]1 (stereo unspecified),–,13 µM,4.07 µM,4.54 µM,5.39 µM,10.4 µM,–,–,25.8 µM,–,–,–,–,17.2 µM,–,–,–,–,–,–
Nc1ccccc1/C(O)=C1/CCOC1=O,> 100 µM,> 100 µM,> 100 µM,> 100 µM,> 100 µM,> 100 µM,–,–,–,–,–,–,–,> 100 µM,–,–,–,–,–,–
COc1cc(/C=C/c2ccc(OC)c(O)c2)cc(OC)c1,9.52 µM,24.7 µM,30.9 µM,17.9 µM,15.4 µM,39.3 µM,–,–,47.5 µM,–,–,–,34.1 µM,44.4 µM,–,–,–,–,–,–
COC(=O)C12CC3CC(CC(C(=O)O)(C3)C1)C2,> 100 µM,–,> 100 µM,–,> 100 µM,> 100 µM,–,–,> 100 µM,–,–,–,> 100 µM,> 100 µM,–,–,–,–,–,–
[N-]=[N+]=C1C(=O)NN=C1c1ccccc1,> 100 µM,> 100 µM,> 100 µM,> 100 µM,–,> 100 µM,–,–,> 100 µM,–,–,–,> 100 µM,–,–,–,–,–,–,–
c1ccc(C2N3CCCCC3[C@@H]3c4[nH]c5ccccc5c4CCN23)nc1 (stereo partly specified),–,> 100 µM,> 100 µM,96.3 µM,> 100 µM,> 100 µM,–,–,> 100 µM,–,–,–,> 100 µM,> 100 µM,–,–,–,–,–,–
CCOC(=O)N[C@@H]1C(CC(=O)OC)O[C@H]2OC(C)(C)O[C@H]21 (stereo partly specified),> 100 µM,> 100 µM,> 100 µM,> 100 µM,> 100 µM,> 100 µM,–,–,> 100 µM,–,–,–,> 100 µM,> 100 µM,–,–,–,–,–,–
O=C(Nc1ccccc1-c1nc2ccccc2[nH]c1=O)c1ccccc1,49.9 µM,68.2 µM,91.2 µM,40.7 µM,35.9 µM,69.2 µM,–,–,> 100 µM,–,–,–,52.6 µM,69.2 µM,–,–,–,–,–,–
CN1CCN(CCCNc2nc3ccc(Oc4ccc(NC(=O)Nc5cc(C(F)(F)F)ccc5F)cc4)cc3[nH]2)CC1,–,–,–,–,7.25 µM,–,8.04 µM,7.65 µM,–,12.5 µM,7.21 µM,7.78 µM,–,–,4.23 µM,3.97 µM,5.17 µM,3.43 µM,4.1 µM,3.84 µM
Nc1ccccc1C#C/C=C\C#Cc1ccccc1N,–,–,–,–,32.3 µM,–,41.2 µM,30.4 µM,–,> 100 µM,> 100 µM,4.58 µM,–,–,11.5 µM,12.5 µM,26.8 µM,26.9 µM,1.43 µM,12.1 µM
COc1ccc2[nH]c3c4[nH]c5ccc(OC)cc5c4c4c(c3c2c1)C(=O)NC4=O,–,–,–,–,> 25 µM,–,> 25 µM,> 25 µM,–,> 25 µM,> 25 µM,> 25 µM,–,–,> 9.4 µM,> 25 µM,> 15.1 µM,> 25 µM,> 12.6 µM,> 25 µM
CCCC1=C(CC)C(C(=O)Nc2c(C)cccc2C)=NC(S)N1 (stereo unspecified),> 100 µM,> 100 µM,> 100 µM,> 100 µM,> 100 µM,> 100 µM,–,–,> 100 µM,–,–,–,> 100 µM,> 100 µM,–,–,–,–,–,–
